Assay results from article PMC3755750 (Cancer chemotherapy and pharmacology, 2013).
Like-named read-outs stand apart in the source and are kept apart here.

How the values were obtained:
[1] = test system: CYP2C19; settings: human liver microsomes; cited from earlier work
[2] = iv dosing; cited from earlier work
[3] = concomitant CYP3A4 inhibitor ketoconazole; cited from earlier work
[4] = test system: CYP3A4; settings: human liver microsomes; cited from earlier work
[5] = cited from earlier work; for Fa, fraction absorbed / Bioavailability / Fraction of dose absorbed: mice; for Fa, fraction absorbed: fixed in the PBPK model; for Bioavailability: oral
[6] = type: in vivo, mice (BALB/c, CB17 SCID, tumor-bearing CB17 SCID); settings: for Tmax: BALB/c, mouse, po; for Dose proportionality of Cmax in plasma and tissues: across mouse strains, sorafenib: all tissues except the tumor; for ka, absorption rate constant: fitted to Study#1 data, then fixed
[7] = test system: P-glycoprotein (P-gp); settings: in vitro; cited from earlier work
[8] = test system: CYP2D6; settings: human liver microsomes; cited from earlier work
[9] = ref Pubchem Compound; cited from earlier work
[10] = cited from earlier work
[11] = CB17-SCID, plasma and most tissues

Compound: CNC(=O)c1cc(Oc2ccc(NC(=O)Nc3ccc(Cl)c(C(F)(F)F)c3)cc2)ccn1 [sorafenib, Sorafenib]
- CYP2C19 inhibition [1]: moderate inhibitor
- Partition coefficient K for brain, calculated [2]: 0.02
- Change in Cmax and exposure, adverse events [3]: lack of clinically relevant adverse events or change in Cmax and exposure
- CYP3A4 inhibition [4]: moderate inhibitor
- Dose proportionality in Cmax and AUC ([5]; CD-1 mice, at the doses tested): dose proportionality
- Terminal half-life ([5]; CD-1 mice): 3.2 to 4.2 h
- Tmax ([5]; CD-1 mice): 1 to 1.6 h
- Fa, fraction absorbed [5]: 0.920
- Bioavailability [5]: 80%
- Fraction of dose absorbed [5]: 92%
- Tmax ([6]; CB17-SCID, GI tract): 1 h
- Tmax [6, 11]: 6 h
- Kf, partition coefficient adipose ([6]; PBPK population mean, mice): 0.624
- Kmu, partition coefficient muscle ([6]; PBPK population mean, mice): 0.356
- Ksk, partition coefficient skin ([6]; PBPK population mean, mice): 0.361
- Clint, hepatic clearance ([6]; PBPK population mean, oral dosing, mice): 6.64 mL/h
- Dose proportionality of Cmax in plasma and tissues [6]: dose-proportional
- ka, absorption rate constant [6]: 3.83 h⁻¹
- Time detected in plasma and all tissues after the last dose ([6]; oral dosing): up to 24 h
- Increase in tumor exposure ([6]; twofold increase in sorafenib dose): tenfold
- P-gp substrate character [7]: weak P-glycoprotein (P-gp) substrate
- CYP2D6 inhibition [8]: moderate inhibitor

Compound: CO[C@H]1C[C@@H]2CC[C@@H](C)[C@@](O)(O2)C(=O)C(=O)N2CCCC[C@H]2C(=O)O[C@H]([C@H](C)C[C@@H]2CC[C@@H](OCCO)[C@H](OC)C2)CC(=O)[C@H](C)/C=C(\C)[C@@H](O)[C@@H](OC)C(=O)[C@H](C)C[C@H](C)/C=C/C=C/C=C/1C [everolimus, Everolimus]
- log P [9]: 5.9
- Fa, fraction absorbed [5]: 0.12
- Bioavailability [5]: 5%
- Fraction of dose absorbed [5]: 12%
- Tmax [6, 11]: 1 h
- Tmax ([6]; adipose and skin, 5 mg/kg): ≤ 6 h
- Kbr, partition coefficient brain ([6]; PBPK population mean, mice): 0.018
- Kmu, partition coefficient muscle ([6]; PBPK population mean, mice): 0.105
- Ksp, partition coefficient spleen ([6]; PBPK population mean, mice): 0.361
- Dose proportionality of Cmax in plasma and tissues [6]: dose-proportional
- ka, absorption rate constant [6]: 9.45 h⁻¹
- Time detected in plasma and all tissues after the last dose ([6]; oral dosing): up to 24 h
- Ktu, partition coefficient tumor ([6]; patient-derived primary pancreatic adenocarcinoma explants in SCID mice): 0.480
- PK (AUC) given alone versus in combination ([6]; student's t test of AUCs from each study, mice): no statistically significant difference
- Increase of everolimus AUC ([10]; concomitant strong CYP inhibitor ketoconazole, humans): 15 fold
- Increase of everolimus AUC ([10]; moderate CYP inhibitors erythromycin, verapamil, cyclosporine): 2.7–4.5 fold
- Change in everolimus AUC ([10]; weak inhibitor atorvastatin): no change
